Test results as given in patent US12391670B2, “Functionalized aminotriazines” (LEADXPRO AG, priority 2018, dated 2025).
pIC50, pKd: −log10 of the molar value. Like-named read-outs stand apart in the source and are kept apart here.

Columns and labels:
human A3 receptor = human A3 receptor (Homo sapiens (Human), UniProt P0DMS8); experiment: Radioligand binding competition assay, [125I]-MECA, membranes from CHO-K1 cells transfected with human A3 receptor
Protocol: (§1) For all four adenosine receptors (A1, A2A, A2B and A3) filtration binding assay was performed. Radioligand binding competition assay was done in duplicates in the wells of a 96-well plate (Master Block, Greiner, 786201) containing binding buffer, receptor membrane extracts, a fixed concentration of tracer and test compound at increasing concentrations. In order to eliminate effect of buffer components, binding buffer was the same for all four receptors and contained: 50 mM Tris-HCl pH 7.4, 5 mM MgCl2, 1 mM EDTA, 150 mM NaCl, 0.1% Na-azide, and 5 U/ml adenosine-deaminase. Nonspecific binding was determined by co-incubation with 200-fold excess of cold competitor. In all radioligand binding experiments, the samples were incubated in a final volume of 0.1 ml for 60 minutes at 25° C. and then filtered over Unifilter plates (Perkin Elmer) pre-treated for 2 hours to limit tracer non-specific binding. Filters were washed five times with 0.5 ml of ice-cold washing buffer (50 mM Tris-HCl pH 7.4, 5 mM MgCl2, 1 mM EDTA) and 50 μl of Microscint 20 (Perkin Elmer) were added to each filter. The plates are incubated 15 min at room temperature on an orbital shaker and then counted with a TopCount™ for 1 min/well.
For A3, the assay was carried out with [^125I]-MECA and membranes from CHO-K1 cells transfected with human A3 receptor (Euroscreen FAST-004B).

human A1 receptor = human A1 receptor (Homo sapiens (Human), UniProt P30542); experiment: Radioligand binding competition assay, [3H]-DPCPX, membranes from CHO-K1 cells transfected with human A1 receptor
Protocol: as §1
For A1 receptor the assay was performed with [^3H]-DPCPX and membranes from CHO-K1 cells transfected with human A1 receptor (Euroscreen FAST-00B).

human A2B receptor [1] = target: T1, human A2B receptor (Homo sapiens (Human), UniProt P29275); experiment: Radioligand binding competition assay, [3H]-DPCPX, membranes from HEK293 cells transfected with human A2B receptor
Protocol: as §1
For A2B, the assay was carried with [^3H]-DPCPX and membranes prepared from HEK293 cells transfected with human A2B receptor (Euroscreen FAST-003B).

[2] = target: human thermostabilised A2B receptor; experiment: Wave Guided Interferometry (WGI); type: binding; conditions: 1:1 interaction model
Protocol: Biophysical Assays: A2B and A2A receptors used for biophysical measurements were produced using baculovirus mediated expression in insect cells. Expression constructs for both receptors contained point mutations that increased receptor thermal stability. Thermostabilised A2B and A2A receptors were solubilized using mild detergents (DDM and DM, respectively) and purified by standard purification methods. A2B receptor was purified in the buffer containing: 40 mM Tris-HCl pH 7.4, 200 mM NaCl, 0.05% DDM, and 0.005% CHS. A2A receptor was purified in the buffer containing: 40 mM Tris-HCl pH 7.4, 200 mM NaCl, 0.15% DM, and 0.002% CHS.
WGI experiments with A2B receptor were performed using the Wave delta instrument (Creoptix AG), a label free surface biosensor. Purified A2B protein was immobilized on 4PCP-N chips (Creoptix, quasi planar NTA functionalized polycarboxylate surface) at typical levels between […]. Running buffer was 25 mM Tris-HCl pH 7.5, 350 mM NaCl, 0.1% DDM, and 2% DMSO. The procedure started with 40 start-up cycles in order to equilibrate and stabilize the surface. Once start-up cycles were performed, different concentrations of compounds (diluted in running buffer, and adjusted depending on the kinetic characteristics) were injected in a multi cycle kinetic mode with typical association time of 120 s and dissociation time of 240 s. A DMSO calibration (typically 5 concentrations between 1 and 3% DMSO) was performed for every experiment in order to calibrate DMSO levels as well as to estimate the missing volume taken by the protein on the chip. Data were evaluated with Creoptix Wave software (Creoptix AG). All final signals are double referenced with injections of same compound concentrations on a reference channel and with buffer injections on the active channel (where protein is immobilized) and fitted with a 1:1 interaction model in order to obtain KD values.

human A2A receptor = human A2A receptor (Homo sapiens (Human), UniProt P29274); experiment: Radioligand binding competition assay, [3H]-NECA, membranes from HEK293 cells transfected with human A2A receptor; conditions: for Human A2A Receptor pKi / pIC50: radioligand binding
Protocol: as §1
For A2A receptor the assay was performed with [^3H]-NECA and membranes from HEK293 cells transfected with human A2A receptor (Euroscreen FAST-002B).

[3] = target: A2B receptors endogenously expressed in HEK293 cells (Homo sapiens (Human), UniProt P29275); experiment: cAMP assay (a), HEK293 cells with A2B receptors endogenously expressed; type: cell-based; conditions: stimulated with 5 μM NECA; for IC50: read-out: cAMP pIC50 (converted)
Protocol: (§2) Two assays have been employed, one using HEK293 with A2B receptors endogenously expressed (named cAMP assay (a) in the following) and a second one using HEK293 cells impressing recombinant human A2B receptors (named cAMP assay (b) in the following)
Real-time cAMP-assays in live cells were performed in HEK293 cells stably expressing the EPAC-sensor (I. Vedel, et al., 2015, J. Biomol. Screen. 20, 849-857).
In order to test for cAMP inhibition by preferred compounds of formula I and antagonists, respectively, from this invention, endogenous A2A and A2B expression in above cell lines was exploited. To run the assay, cells were incubated in 80 μl assay buffer for 15 minutes at room temperature. The assay buffer was composed of Hanks Balanced Salt Solution (Gibco) with 20 mM HEPES, pH 7.4 and […] adenosine-deaminase. All cAMP assays were run at room temperature using a PHERAstar FSX plate reader. The FRET donor (mCerulean) was excited at 430 nm. Fluorescence emission was measured at 480 nm and 530 nm for 65 minutes (cycle time 1.45 min). Prior to stimulation fluorescence was measured for 10 min (baseline). Subsequently cells were stimulated with 5 μM NECA (5′-(N-Ethylcarboxamido)adenosine; Tocris, Cat.-No:35920-39-9). Sharply 10.15 min after stimulation the compounds were added at increasing concentrations (between 0 and 200 μM) and fluorescence was recorded for 40 min. Each compound concentration was measured in duplicates.

human A2B receptor [4] = target: T1, human A2B receptor; experiment: cAMP assay (b), HEK293 cells expressing recombinant human A2B receptor; type: cell-based; conditions: reference agonist at EC80, read-out: cAMP pIC50 (converted)
Protocol: as §2
Dose response curves were performed in parallel with the reference compounds. 12 μl of cells were mixed with 6 μl of the test compound at increasing concentrations and then incubated 10 min. Thereafter 6 μl of the reference agonist was added at a final concentration corresponding to the historical EC80. The plates were then incubated for 30 min at room temperature. After addition of the lysis buffer and 1 hour incubation, cAMP concentrations were estimated, according to the manufacturer specification, with the HTRF kit.

Sequence of human A3 receptor (P0DMS8 whole entry): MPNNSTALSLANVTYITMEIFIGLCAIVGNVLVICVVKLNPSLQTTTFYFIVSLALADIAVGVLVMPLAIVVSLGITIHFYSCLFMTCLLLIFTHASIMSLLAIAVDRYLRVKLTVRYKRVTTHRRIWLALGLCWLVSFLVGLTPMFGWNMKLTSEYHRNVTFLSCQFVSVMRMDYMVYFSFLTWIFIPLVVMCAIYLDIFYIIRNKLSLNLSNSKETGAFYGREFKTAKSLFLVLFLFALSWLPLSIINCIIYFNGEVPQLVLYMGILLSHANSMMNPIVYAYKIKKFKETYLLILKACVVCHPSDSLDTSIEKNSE
Sequence of human A1 receptor (P30542 whole entry): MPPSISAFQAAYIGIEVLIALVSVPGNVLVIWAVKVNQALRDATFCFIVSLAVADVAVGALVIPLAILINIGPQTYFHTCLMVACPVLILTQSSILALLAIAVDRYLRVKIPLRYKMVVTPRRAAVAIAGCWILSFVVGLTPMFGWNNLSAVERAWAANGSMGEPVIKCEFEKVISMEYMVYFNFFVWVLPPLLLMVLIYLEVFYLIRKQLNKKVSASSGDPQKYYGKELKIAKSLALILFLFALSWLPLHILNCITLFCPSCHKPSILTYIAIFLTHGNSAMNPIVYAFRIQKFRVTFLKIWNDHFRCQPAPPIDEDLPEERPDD
Sequence of human A2A receptor (P29274 whole entry): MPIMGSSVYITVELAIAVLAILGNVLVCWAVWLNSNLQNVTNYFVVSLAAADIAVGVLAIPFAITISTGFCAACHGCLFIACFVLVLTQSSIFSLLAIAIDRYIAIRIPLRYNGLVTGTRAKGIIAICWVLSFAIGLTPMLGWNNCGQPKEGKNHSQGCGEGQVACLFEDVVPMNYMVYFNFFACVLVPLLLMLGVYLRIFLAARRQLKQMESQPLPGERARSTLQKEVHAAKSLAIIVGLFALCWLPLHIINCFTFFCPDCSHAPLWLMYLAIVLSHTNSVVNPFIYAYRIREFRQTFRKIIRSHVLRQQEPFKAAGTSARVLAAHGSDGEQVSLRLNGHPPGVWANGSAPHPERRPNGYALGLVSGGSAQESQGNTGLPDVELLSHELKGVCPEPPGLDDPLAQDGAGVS
T1 sequence (P29275 whole entry): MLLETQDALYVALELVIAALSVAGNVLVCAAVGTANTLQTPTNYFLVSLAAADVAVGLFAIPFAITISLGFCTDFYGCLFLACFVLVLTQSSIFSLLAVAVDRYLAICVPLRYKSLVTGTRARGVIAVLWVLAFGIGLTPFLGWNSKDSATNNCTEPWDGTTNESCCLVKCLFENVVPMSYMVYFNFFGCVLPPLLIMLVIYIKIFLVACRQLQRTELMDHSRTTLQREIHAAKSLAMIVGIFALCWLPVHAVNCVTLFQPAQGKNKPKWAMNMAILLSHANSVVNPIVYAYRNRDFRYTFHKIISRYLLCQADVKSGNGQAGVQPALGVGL
Sequence of A2B receptors endogenously expressed in HEK293 cells (P29275 whole entry): as above

Row | SMILES | Human A3 Receptor pKi (human A3 receptor) | pIC50 (human A3 receptor) | Human A1 Receptor pKi (human A1 receptor) | pIC50 (human A1 receptor) | Human A2B Receptor pKi (human A2B receptor [1]) | pIC50 (human A2B receptor [1]) | pKd [2] | inhibition at 50 µM (human A2A receptor) [%] | Human A2A Receptor pKi (human A2A receptor) | pIC50 [3] | IC50 [3] [nM] | pIC50 (human A2A receptor) | IC50 (human A2B receptor [4]) [nM]
1 | Cc1cc(Nc2nnc(-c3ccncc3F)c(-c3ccccc3F)n2)[nH]n1 [Example 14, 5-(2-fluorophenyl)-6-(3-fluoropyridin-4-yl)-N-(3-methyl-1H-pyrazol-5-yl)-1,2,4-triazin-3-amine] | 4.68 | 4.57 | 5.96 | 5.66 | 6.93 | 6.34 | 6.62 | 54 | <4.70 |  |  |  | 
2 | CNC(=O)Nc1nnc(-c2ccncc2F)c(-c2ccccc2F)n1 [Example 16, 1-(5-(2-fluorophenyl)-6-(3-fluoropyridin-4-yl)-1,2,4-triazin-3-yl)-3-methylurea] | 5.14 | 5.02 | 5.73 | 5.42 | 6.84 | 6.80 | 7.00 | 48 | <4.70 |  |  |  | 
3 | Cc1nsc(Nc2nnc(-c3ccnc(C(F)(F)F)c3)c(-c3ccccc3F)n2)n1 [Example 11, N-(5-(2-fluorophenyl)-6-(2-(trifluoromethyl)pyridin-4-yl)-1,2,4-triazin-3-yl)-3-methyl-1,2,4-thiadiazol-5-amine] |  |  |  |  |  |  | 6.33 |  |  |  |  |  | 
4 | Fc1ccccc1-c1nc(Nc2cccnc2)nnc1-c1ccnc(C(F)(F)F)c1 [Example 8, 5-(2-fluorophenyl)-N-(pyridin-3-yl)-6-(2-(trifluoromethyl)pyridin-4-yl)-1,2,4-triazin-3-amine] |  |  |  |  |  |  | 6.89 |  |  |  |  |  | 
5 | Fc1cnccc1-c1nnc(Nc2cccnc2)nc1-c1cccnc1 [Example 1, 6-(3-fluoropyridin-4-yl)-N,5-di(pyridin-3-yl)-1,2,4-triazin-3-amine] |  |  | 5.02 | 4.72 | 6.55 | 6.49 | 6.30 |  | 4.73 | 6.40 | 398 | 4.73 | 
6 | Cc1n[nH]c(Nc2nnc(-c3ccncc3F)c(-c3ccccc3F)n2)n1 [Example 15, 5-(2-fluorophenyl)-6-(3-fluoropyridin-4-yl)-N-(3-methyl-1H-1,2,4-triazol-5-yl)-1,2,4-triazin-3-amine] | 4.48 | 4.36 | 6.23 | 5.93 | 6.82 | 6.77 | 6.92 |  | 4.4 |  |  | 4.40 | 501
7 | OCc1ncc(Nc2nnc(-c3ccncc3F)c(-c3ccccc3F)n2)cn1 [Example 39, (5-{[5-(2-fluorophenyl)-6-(3-fluoropyridin-4-yl)-1,2,4-triazin-3-yl]amino}pyrimidin-2-yl)methanol] | 6.52 |  | 6.19 |  | 7.76 |  |  |  | 5.66 |  |  |  | 41.7
8 | Fc1cnccc1-c1nnc(Nc2nc(Cl)cs2)nc1-c1cccnc1 [Example 4, 4-chloro-N-(6-(3-fluoropyridin-4-yl)-5-(pyridin-3-yl)-1,2,4-triazin-3-yl)thiazol-2-amine] |  |  |  |  | 6.5 | 6.44 | 6.00 |  | 5.48 |  |  | 5.48 | 
9 | Fc1cccc(Nc2nnc(-c3ccncc3F)c(-c3cccnc3)n2)c1 [Example 2, N-(3-fluorophenyl)-6-(3-fluoropyridin-4-yl)-5-(pyridin-3-yl)-1,2,4-triazin-3-amine] |  |  | 5.43 | 5.13 | 6.99 | 6.92 | 6.00 |  | 4.9 | 6.20 | 631 | 4.90 | 
